According to PubChem BioAssay AID296 (DTP/NCI, 2004):
Values joined by “and” are separate entries in the source; they are usually repeats but may differ in a detail not shown here. Equal entries are not always repeated. Results filed as inconclusive are left out.

Test system: MX-1 breast xenograft, nude mice, tumor weight T/C
Test: NCI In Vivo Anticancer Drug Screen. Data for tumor model Human Mammary Carcinoma MX-1 Xenograft (intrarenal inoculation) in NU/NU Swiss (nude) mice
Settings: endpoint: mean tumor weight change, higher = larger tumour
How it was run: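 Antitumour effect measured in vivo against vehicle controls, expressed as T/C.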

[1] = dose: 25.0 mg/kg/injection, schedule: Q01DX010 (sc), vehicle: water
[2] = dose: 50.0 mg/kg/injection, schedule: Q01DX010 (sc), vehicle: water
[3] = dose: 200.0 mg/kg/injection, schedule: Q01DX010 (sc), vehicle: saline with Tween-80
[4] = dose: 150.0 mg/kg/injection, schedule: Q04DX003 (sc), vehicle: saline with Tween-80
[5] = dose: 300.0 mg/kg/injection, schedule: Q04DX003 (sc), vehicle: saline with Tween-80
[6] = dose: 600.0 mg/kg/injection, schedule: Q04DX003 (sc), vehicle: saline with Tween-80
[7] = dose: 1200.0 mg/kg/injection, schedule: Q04DX003 (sc), vehicle: saline with Tween-80
[8] = dose: 50.0 mg/kg/injection, schedule: Q01DX010 (sc), vehicle: saline with Tween-80
[9] = dose: 100.0 mg/kg/injection, schedule: Q01DX010 (sc), vehicle: saline with Tween-80
[10] = dose: 300.0 mg/kg/injection, schedule: Q04DX003 (sc), vehicle: Klucel (hydroxypropylcellulose) (HPC)
[11] = dose: 600.0 mg/kg/injection, schedule: Q04DX003 (sc), vehicle: Klucel (hydroxypropylcellulose) (HPC)
[12] = dose: 1200.0 mg/kg/injection, schedule: Q04DX003 (sc), vehicle: Klucel (hydroxypropylcellulose) (HPC)
[13] = dose: 50.0 mg/kg/injection, schedule: Q01DX010 (sc), vehicle: saline
[14] = dose: 100.0 mg/kg/injection, schedule: Q01DX010 (sc), vehicle: saline
[15] = dose: 75.0 mg/kg/injection, schedule: Q04DX003 (sc), vehicle: saline with Tween-80

O=C1C(=O)c2ccccc2C(O)=C1CC=C(Cl)Cl
T/C [1]: 68 % of control
T/C [2]: 110 % of control
T/C (dose: 100.0 mg/kg/injection, schedule: Q01DX010 (sc), vehicle: water): 109 % of control
T/C (dose: 200.0 mg/kg/injection, schedule: Q01DX010 (sc), vehicle: water): 106 % of control

CC(=O)Nc1ccc(C(=O)C=O)cc1
T/C [3]: 55 % of control

Nc1nc(N)c2cc(S(=O)(=O)c3ccccc3)ccc2n1
T/C [4]: 160 % of control
T/C [5]: 171 % of control
T/C [6]: 185 % of control
T/C [7]: 152 % of control

O/N=C/c1ccccc1O.O/N=C/c1ccccc1O.[Cu]
T/C [5]: 81 % of control
T/C [6]: 72 % of control
T/C [7]: 60 % of control
T/C (dose: 2400.0 mg/kg/injection, schedule: Q04DX003 (sc), vehicle: saline with Tween-80): 103 % of control

CC1(CO)C(O)CCC2(C)C1CCC1CC3CC12CCC3(O)CO (stereo not drawn)
T/C [8]: 56 % of control
T/C [9]: 38 % of control

O=NN(CCCl)C(=O)Oc1ccc(OC(=O)N(CCCl)N=O)cc1
T/C (dose: 150.0 mg/kg/injection, schedule: Q04DX003 (sc), vehicle: Klucel (hydroxypropylcellulose) (HPC)): 107 % of control
T/C [10]: 95 % of control
T/C [11]: 91 % of control
T/C [12]: 117 % of control

CC[C@](O)(C(=O)O)c1cc2n(c(=O)c1CO)Cc1cc3ccccc3nc1-2
T/C (dose: 8.0 mg/kg/injection, schedule: Q04DX003 (sc), vehicle: saline): 2 % of control
T/C (dose: 16.0 mg/kg/injection, schedule: Q04DX003 (sc), vehicle: saline): -92 % of control
T/C (dose: 32.0 mg/kg/injection, schedule: Q04DX003 (sc), vehicle: saline): -89 % of control
T/C (dose: 64.0 mg/kg/injection, schedule: Q04DX003 (sc), vehicle: saline): -100 % of control

CC1Oc2cc3c(-c4c(O)cc(O)c5c(O)c6c(cc45)OC(C)C(C)C6=O)c(O)cc(O)c3c(O)c2C(=O)C1C (stereo not drawn)
T/C (dose: 9.38 mg/kg/injection, schedule: Q04DX003 (ip), vehicle: suspension in saline): 16 % of control

CC(C)CC(NC(=O)CF)C(=O)O (stereo not drawn)
T/C (dose: 10.0 mg/kg/injection, schedule: Q04DX003 (sc), vehicle: saline): 92 % of control
T/C (dose: 20.0 mg/kg/injection, schedule: Q04DX003 (sc), vehicle: saline): 89 % of control

CCN(CC)CCNc1ccc(C)c2sc3ccccc3c(=O)c12
T/C [13]: 79 % of control
T/C [14]: 53 % of control

CC(C)[NH-].CC(C)[NH-].O.O.[Cl][Pt+2][Cl]
T/C (dose: 3.12 mg/kg/injection, schedule: Q01DX010 (sc), vehicle: dextrose): 80 % of control and 97 % of control
T/C (dose: 6.25 mg/kg/injection, schedule: Q01DX010 (sc), vehicle: dextrose): 7 % of control and 22 % of control
T/C (dose: 25.0 mg/kg/injection, schedule: Q01DX010 (sc), vehicle: dextrose): -89 % of control

O=CC=O
T/C [8]: 109 % of control
T/C [9]: 74 % of control
T/C [3]: 100 % of control
T/C (dose: 400.0 mg/kg/injection, schedule: Q01DX010 (sc), vehicle: saline with Tween-80): 60 % of control

C[N+](C)(C)c1ncnc2nc[nH]c12
T/C [13]: 57 % of control
T/C [14]: 38 % of control

c1ccc([Te][Te]c2ccccc2)cc1
T/C (dose: 75.0 mg/kg/injection, schedule: Q04DX003 (ip), vehicle: saline with Tween-80): 117 % of control
T/C (dose: 150.0 mg/kg/injection, schedule: Q04DX003 (ip), vehicle: saline with Tween-80): 80 % of control
T/C (dose: 300.0 mg/kg/injection, schedule: Q04DX003 (ip), vehicle: saline with Tween-80): 91 % of control

COC(=O)NC1C(C)OC(OC2C/C=C(/C)C3C=CC4C(OC5CC(OC6CCC(OC7CC(O)C(OC8CCC(O)C(C)O8)C(C)O7)C(C)O6)C(OC(C)=O)C(C)O5)C(C)CC(C)C4C3(C)/C(O)=C3/C(=O)OC4(CC(C=O)=CC(O)C4/C=C\2C)C3=O)CC1(C)[N+](=O)[O-] (stereo not drawn)
T/C (dose: 25.0 mg/kg/injection, schedule: Q04DX003 (sc), vehicle: other): 95 % of control
T/C (dose: 50.0 mg/kg/injection, schedule: Q04DX003 (sc), vehicle: other): 71 % of control

O=NN(CCCl)C(=O)Oc1cc(Cl)c(Cl)cc1Cl
T/C [10]: 64 % of control
T/C [11]: 35 % of control
T/C [12]: 21 % of control
T/C (dose: 2400.0 mg/kg/injection, schedule: Q04DX003 (sc), vehicle: Klucel (hydroxypropylcellulose) (HPC)): 33 % of control

CCN(CC)CCC(=O)c1ccccc1
T/C [15]: 94 % of control
T/C [4]: 100 % of control
T/C [5]: 115 % of control

COc1ccc([I+]c2cccc(Cl)c2)cc1Cl
T/C [4]: 114 % of control
T/C [5]: 100 % of control
T/C [6]: 84 % of control
T/C [7]: 41 % of control

CC1(C)OCC(CO)(Nc2nc(N3CC3)nc(N3CC3)n2)CO1
T/C (dose: 2.5 mg/kg/injection, schedule: Q01DX010 (sc), vehicle: saline): -75 % of control

N=c1ccn2c(n1)OC1C(O)C(CO)OC12 (stereo not drawn)
T/C (dose: 150.0 mg/kg/injection, schedule: Q04DX003 (sc), vehicle: saline): 102 % of control
T/C (dose: 300.0 mg/kg/injection, schedule: Q04DX003 (sc), vehicle: saline): 84 % of control
T/C (dose: 400.0 mg/kg/injection, schedule: Q04DX003 (sc), vehicle: saline): 95 % of control
T/C (dose: 600.0 mg/kg/injection, schedule: Q04DX003 (sc), vehicle: saline): 42 % of control
T/C (dose: 600.0 mg/kg/injection, schedule: Q04DX003 (sc), vehicle: suspension in saline): 70 % of control
T/C (dose: 800.0 mg/kg/injection, schedule: Q04DX003 (sc), vehicle: saline): 69 % of control
T/C (dose: 1200.0 mg/kg/injection, schedule: Q04DX003 (sc), vehicle: saline): 50 % of control
T/C (dose: 1200.0 mg/kg/injection, schedule: Q04DX003 (sc), vehicle: suspension in saline): 55 % of control
T/C (dose: 1600.0 mg/kg/injection, schedule: Q04DX003 (sc), vehicle: saline): 64 % of control
T/C (dose: 2400.0 mg/kg/injection, schedule: Q04DX003 (sc), vehicle: suspension in saline): 70 % of control

CN1N=C(N)c2cn(C3OC(COP(=O)(O)O)C(O)C3O)c3ncnc1c23 (stereo not drawn)
T/C [1]: -92 % of control and -76 % of control
T/C [2]: -91 % of control and -75 % of control

CNC(=O)/C=C/C1=CN2C(=O)c3ccc(C)c(O)c3NC(OC)C2C1 (stereo not drawn)
T/C (dose: 0.2 mg/kg/injection, schedule: Q04DX003 (sc), vehicle: saline): 82 % of control
T/C (dose: 0.4 mg/kg/injection, schedule: Q04DX003 (ip), vehicle: saline): 18 % of control and 21 % of control
T/C (dose: 1.6 mg/kg/injection, schedule: Q04DX003 (sc), vehicle: saline): 3 % of control

C/C=C/c1cc2n(c1)C(=O)c1cc(OC3OC(C)C(NC)C(C)(O)C3O)c(C)c(O)c1NC2O (stereo not drawn)
T/C (dose: 100.0 micrograms/kg/injection, schedule: Q04DX003 (sc), vehicle: saline): 182 % of control
T/C (dose: 200.0 micrograms/kg/injection, schedule: Q04DX003 (sc), vehicle: saline): 22 % of control
T/C (dose: 400.0 micrograms/kg/injection, schedule: Q04DX003 (sc), vehicle: saline): 91 % of control

Oc1ccc(O)cc1
T/C (dose: 25.0 mg/kg/injection, schedule: Q04DX003 (sc), vehicle: saline): 81 % of control
T/C (dose: 50.0 mg/kg/injection, schedule: Q04DX003 (sc), vehicle: saline): 71 % of control
T/C (dose: 100.0 mg/kg/injection, schedule: Q04DX003 (sc), vehicle: saline): 75 % of control

CC(=O)CC(C)=O.CC(=O)CC(C)=O.O=N[O-].O=N[O-].[Co]
T/C [15]: 72 % of control
T/C [4]: 67 % of control

Cc1c(CNc2ccc(C(=O)NC(CC(=O)O)C(=O)O)cc2)ccc2nc(N)nc(N)c12 (stereo not drawn)
T/C (dose: 6.0 mg/kg/injection, schedule: Q04DX003 (sc), vehicle: saline with Tween-80): 29 % of control
T/C (dose: 48.0 mg/kg/injection, schedule: Q04DX003 (sc), vehicle: saline with Tween-80): 13 % of control and 33 % of control
T/C (dose: 72.0 mg/kg/injection, schedule: Q04DX003 (sc), vehicle: saline with Tween-80): 18 % of control and 28 % of control

CCC1CCCCN1C(=S)N/N=C(\C)c1ccccn1 (stereo not drawn)
T/C (dose: 18.75 mg/kg/injection, schedule: Q04DX003 (sc), vehicle: saline with Tween-80): 53 % of control
T/C (dose: 37.5 mg/kg/injection, schedule: Q04DX003 (sc), vehicle: saline with Tween-80): 97 % of control
T/C [15]: 82 % of control
